Experiment: molar heat capacity at constant pressure
Conditions: 101.33 kPa, Vacuum adiabatic calorimetry

CCCCn1cc[n+](C)c1.[I-] [1-butyl-3-methylimidazolium iodide]
molar heat capacity at constant pressure [J/K/mol]
Conditions	Crystal	Liquid
239.7 K	–	291.7
240 K	206.3	291.7
240.03 K	206.3	–
240.46 K	–	291.9
240.67 K	206.7	–
240.69 K	–	291.9
241.59 K	207.5	–
241.7 K	–	292.2
241.85 K	–	292.2
242.01 K	208	–
242.65 K	208.4	–
242.68 K	–	292.5
243.58 K	209.1	–
243.69 K	–	292.7
243.99 K	209.6	–
244.04 K	–	292.7
244.63 K	210	–
244.67 K	–	293
245.57 K	210.8	–
245.96 K	211.2	–
246.6 K	211.6	–
247.55 K	212.5	–
247.93 K	212.9	–
248.56 K	213.4	–
249.54 K	214.3	–
249.7 K	–	294.3
250 K	214.6	294.4
250.52 K	215.1	–
251.69 K	–	294.9
252.54 K	217.2	–
253.58 K	–	295.4
254.59 K	219.4	–
255.48 K	–	295.9
256.64 K	221.7	–
257.37 K	–	296.5
258.69 K	224.2	–
259.26 K	–	297.3
260 K	223.4	297.4
260.73 K	227	–
261.15 K	–	297.8
262.75 K	230.3	–
263.05 K	–	298.3
264.77 K	234	–
264.94 K	–	298.9
266.78 K	238.1	–
266.84 K	–	299.7
267.43 K	–	299.7
268.74 K	–	300.2
268.77 K	243.1	–
269.42 K	–	300.5
270 K	232.6	300.6
270.64 K	–	300.7
270.74 K	249	–
271.32 K	–	301
272.7 K	256.2	–
273.22 K	–	301.5
274.63 K	266.1	–
275.12 K	–	302.3
276.52 K	280.2	–
277.02 K	–	302.9
278.36 K	295.7	–
278.92 K	–	303.4
280 K	242.3	303.8
280.15 K	317.2	–
280.82 K	–	303.9
281.86 K	349.7	–
282.72 K	–	304.7
283.46 K	398.1	–
284.62 K	–	305.2
284.92 K	473.4	–
286.2 K	587.3	–
286.52 K	–	306
287.29 K	773.4	–
288.17 K	1041	–
288.42 K	–	306.6
288.86 K	1421	–
289.4 K	1917	–
290 K	252.5	307.1
290.32 K	–	307.1
291.92 K	254.5	307.8
292.23 K	–	307.9
293.86 K	–	308.4
294.13 K	–	308.4
294.32 K	–	308.7
295.68 K	–	309
296.03 K	–	309.2
296.1 K	–	309.2
297.5 K	–	309.8
297.89 K	–	309.8
297.93 K	–	309.8
298.15 K	–	309.9
299.84 K	–	310.6
300 K	–	310.5
301.74 K	–	311.1
303.65 K	–	311.9
305.55 K	–	312.4
307.45 K	–	313.2
309.36 K	–	313.8
310 K	–	314.1
311.26 K	–	314.6
313.17 K	–	315.1
315.07 K	–	315.9
316.98 K	–	316.7
318.89 K	–	317.2
320 K	–	317.6
320.79 K	–	318
322.7 K	–	318.6
324.6 K	–	319.4
326.51 K	–	320.1
328.41 K	–	320.7
330 K	–	321.3
330.32 K	–	321.5
332.22 K	–	322
334.13 K	–	322.8
336.03 K	–	323.6
337.93 K	–	324.4
339.84 K	–	324.9
340 K	–	325.1
341.74 K	–	325.7
343.65 K	–	326.5
345.55 K	–	327.3
347.47 K	–	327.9
349.37 K	–	328.7
350 K	–	328.9
351.28 K	–	329.5
353.19 K	–	330.3
355.09 K	–	330.8
357 K	–	331.6
358.91 K	–	332.4
360 K	–	332.9
360.81 K	–	333.2
362.72 K	–	334
364.62 K	–	334.8
366.52 K	–	335.3
368.43 K	–	336.4
370 K	–	336.9
